In one test the target is CDK2 (Homo sapiens (Human), UniProt P24941). Briefly: CDK2 NanoBiT assay (HiBiT-tagged CDK2 degradation). Format: cell-based. The conditions noted are these: HEK293, HEK293 clonal line, C-terminal HiBiT tag on CDK2, LgBiT; 24 hours. The gist of the method:
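HEK293 line with CRISPR knock-in C-terminal HiBiT-tagged CDK2 and stable LgBiT, preincubated 16 h with live-cell substrate, then compound-treated 24 h at 37° C, 5% CO2 (30 μM stock). Luminescence normalized to plate negative and positive controls; EC50 from 3-parameter logistic fit, Hill slope 1.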

In another test the target is CRBN-DDB1 (Homo sapiens (Human), UniProt Q96SW2). Briefly: CRBN HTRF assay (Cy5-Thalidomide probe displacement). Format: binding. The conditions noted are these: CRBN-DDB1 2.5 nM, Cy5-Thalidomide 100 nM, 30 min; Ki from geometric mean IC50 by Cheng-Prusoff. The gist of the method: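 HTRF displacement of Cy5-thalidomide probe (100 nM) from His-CRBN-DDB1 (2.5 nM) with anti-His terbium cryptate, in HEPES/NaCl/TCEP/EDTA/Tween20 buffer. 10-point 1:3 compound series, 30 min at ambient temperature; signal normalised to DMSO and lenalidomide controls, IC50 fitted and Ki derived by Cheng-Prusoff.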

Where only a bound is given, the exact number is not on record here.

Drawing on patent US20250263395A1, “COMPOUNDS THAT MEDIATE PROTEIN DEGRADATION AND METHODS OF USE THEREOF” (Monte Rosa Therapeutics AG, priority 2022, published 2025), this text covers Dmax and Ki for 23 compounds.

Sequence of CRBN-DDB1 (Q96SW2 whole entry): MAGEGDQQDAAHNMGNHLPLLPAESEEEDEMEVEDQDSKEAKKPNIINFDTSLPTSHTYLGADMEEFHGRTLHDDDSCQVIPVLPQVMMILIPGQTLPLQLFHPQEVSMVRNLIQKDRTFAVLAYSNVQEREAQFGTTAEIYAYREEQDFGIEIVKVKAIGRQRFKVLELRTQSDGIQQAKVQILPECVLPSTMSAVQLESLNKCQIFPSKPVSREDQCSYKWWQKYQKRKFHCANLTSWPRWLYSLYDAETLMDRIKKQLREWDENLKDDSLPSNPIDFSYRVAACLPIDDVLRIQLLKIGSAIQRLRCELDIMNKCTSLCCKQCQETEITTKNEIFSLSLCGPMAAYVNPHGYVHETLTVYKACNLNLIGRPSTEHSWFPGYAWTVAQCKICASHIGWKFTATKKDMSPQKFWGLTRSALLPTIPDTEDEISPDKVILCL
Sequence of CRBN-DDB1 (Q16531 whole entry partner): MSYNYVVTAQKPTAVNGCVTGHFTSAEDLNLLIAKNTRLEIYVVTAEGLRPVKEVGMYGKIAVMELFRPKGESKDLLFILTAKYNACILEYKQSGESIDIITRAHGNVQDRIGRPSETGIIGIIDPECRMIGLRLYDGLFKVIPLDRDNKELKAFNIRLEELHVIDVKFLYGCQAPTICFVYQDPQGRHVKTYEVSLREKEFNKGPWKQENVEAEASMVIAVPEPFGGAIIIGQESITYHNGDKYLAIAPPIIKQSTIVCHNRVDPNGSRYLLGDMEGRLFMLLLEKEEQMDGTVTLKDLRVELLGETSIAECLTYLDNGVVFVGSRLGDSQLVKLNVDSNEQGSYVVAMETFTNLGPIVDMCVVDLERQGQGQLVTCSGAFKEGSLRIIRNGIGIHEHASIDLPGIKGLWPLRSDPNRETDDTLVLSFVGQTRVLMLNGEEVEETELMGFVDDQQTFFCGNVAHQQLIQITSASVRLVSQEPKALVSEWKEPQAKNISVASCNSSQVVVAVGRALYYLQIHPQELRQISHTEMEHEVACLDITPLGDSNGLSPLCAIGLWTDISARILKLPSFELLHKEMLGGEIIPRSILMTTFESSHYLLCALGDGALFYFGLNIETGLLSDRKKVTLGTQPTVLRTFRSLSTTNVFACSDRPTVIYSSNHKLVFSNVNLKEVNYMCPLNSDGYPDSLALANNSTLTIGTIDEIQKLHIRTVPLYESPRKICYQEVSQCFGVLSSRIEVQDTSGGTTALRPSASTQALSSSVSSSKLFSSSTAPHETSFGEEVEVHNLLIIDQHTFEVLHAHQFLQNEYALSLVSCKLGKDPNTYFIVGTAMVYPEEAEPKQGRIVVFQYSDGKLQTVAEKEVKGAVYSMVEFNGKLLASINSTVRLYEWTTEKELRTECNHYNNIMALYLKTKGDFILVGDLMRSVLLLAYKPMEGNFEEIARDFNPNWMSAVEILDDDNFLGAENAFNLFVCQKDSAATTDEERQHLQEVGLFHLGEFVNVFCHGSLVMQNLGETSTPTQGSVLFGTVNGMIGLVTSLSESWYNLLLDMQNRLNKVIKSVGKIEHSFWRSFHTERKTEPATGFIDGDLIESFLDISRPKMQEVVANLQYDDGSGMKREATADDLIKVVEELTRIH

On to `Cc1cc(Cl)ccc1N(C)C(=O)C12CC(OC(=O)NC3CN(c4cc(F)c(C5CCC(=O)NC5=O)c(F)c4)C3)(C1)C2` (stereo not shown) [Compound 112, 3-((4-chloro-2-methylphenyl)(methyl)carbamoyl)bicyclo[1.1.1]pentan-1-yl (1-(4-(2,6-dioxopiperidin-3-yl)-3,5-difluorophenyl)azetidin-3-yl)carbamate], for which the Dmax at CDK2 was 10 to 50%. At CRBN-DDB1, the Ki is not above 100 nM.
Compound `Cc1cc(Cl)ccc1N(C)C(=O)N1CC(OC(=O)NC2CN(c3cc(F)c(C4CCC(=O)NC4=O)c(F)c3)C2)C1` (stereo not shown) [Compound 113, 1-((4-chloro-2-methylphenyl)(methyl)carbamoyl)azetidin-3-yl (1-(4-(2,6-dioxopiperidin-3-yl)-3,5-difluorophenyl)azetidin-3-yl)carbamate] displayed a Dmax at CDK2 of 10 to 50%. This compound also returned a Ki on CRBN-DDB1 not above 100 nM.
With `Cc1cccc(N(C)C(=O)C23CC(OC(=O)NC4CN(c5cc(F)c(C6CCC(=O)NC6=O)c(F)c5)C4)(C2)C3)c1C` (stereo not shown) [Compound 114, 3-((2,3-dimethylphenyl)(methyl)carbamoyl)bicyclo[1.1.1]pentan-1-yl (1-(4-(2,6-dioxopiperidin-3-yl)-3,5-difluorophenyl)azetidin-3-yl)carbamate], the Dmax at CDK2 was 10 to 50%. The compound further showed a Ki at CRBN-DDB1 not above 100 nM.
Compound `Cc1c(Cl)cccc1N(C)C(=O)C12CC(OC(=O)NC3CN(c4cc(F)c(C5CCC(=O)NC5=O)c(F)c4)C3)(C1)C2` (stereo not shown) [Compound 115, 3-((3-chloro-2-methylphenyl)(methyl)carbamoyl)bicyclo[1.1.1]pentan-1-yl (1-(4-(2,6-dioxopiperidin-3-yl)-3,5-difluorophenyl)azetidin-3-yl)carbamate] yielded a Dmax at CDK2 of 10 to 50%. The compound also gave a Ki at CRBN-DDB1 not above 100 nM.
For `Cc1ccc(N(C)C(=O)N2CC(OC(=O)NC3CN(c4cc(F)c(C5CCC(=O)NC5=O)c(F)c4)C3)C2)c(C)c1` (stereo not shown) [Compound 116, 1-((2,4-dimethylphenyl)(methyl)carbamoyl)azetidin-3-yl (1-(4-(2,6-dioxopiperidin-3-yl)-3,5-difluorophenyl)azetidin-3-yl)carbamate], in that order: 10 to 50% and not above 100 nM.
Consider `Cc1ccc(N(C)C(=O)C23CC(OC(=O)NC4CN(c5cc(F)c(C6CCC(=O)NC6=O)c(F)c5)C4)(C2)C3)c(C)c1` (stereo not shown) [Compound 117, 3-((2,4-dimethylphenyl)(methyl)carbamoyl)bicyclo[1.1.1]pentan-1-yl (1-(4-(2,6-dioxopiperidin-3-yl)-3,5-difluorophenyl)azetidin-3-yl)carbamate], for which the maximal degradation (Dmax) at CDK2 lay in the range of 10 to 50%. In addition, on CRBN-DDB1, the Ki is not above 100 nM.
Take `CN(C(=O)C12CC(OC(=O)NC3CN(c4cc(F)c(C5CCC(=O)NC5=O)c(F)c4)C3)(C1)C2)c1ccc(C#N)cc1` (stereo not shown) [Compound 120, 3-((4-cyanophenyl)(methyl)carbamoyl)bicyclo[1.1.1]pentan-1-yl (1-(4-(2,6-dioxopiperidin-3-yl)-3,5-difluorophenyl)azetidin-3-yl)carbamate]: the Dmax at CDK2 was in the range of 10 to 50%. The same compound had a Ki at CRBN-DDB1 not above 100 nM.
At CDK2, `COc1c(N2CC(C)(Nc3nnc(C4CC5(CCC5)C4)o3)C2)ccc(C2CCC(=O)NC2=O)c1F` (stereo not shown) [Compound 121, 3-(2-fluoro-3-methoxy-4-(3-methyl-3-((5-(spiro[3.3]heptan-2-yl)-1,3,4-oxadiazol-2-yl)amino)azetidin-1-yl)phenyl)piperidine-2,6-dione] registered a Dmax of 10 to 50%. The compound further had a Ki on CRBN-DDB1 not above 100 nM.
The matching figures for `CC1(CCc2nnc(NC3CN(c4cc(F)c(C5CCC(=O)NC5=O)c(F)c4)C3)o2)CC1` (stereo not shown) [Compound 122, 3-(2,6-difluoro-4-(3-((5-(2-(1-methylcyclopropyl)ethyl)-1,3,4-oxadiazol-2-yl)amino)azetidin-1-yl)phenyl)piperidine-2,6-dione]: 10 to 50% and not above 100 nM.
Take `CN(C(=O)C12CC(OC(=O)NC3CN(c4cc(F)c(C5CCC(=O)NC5=O)c(F)c4)C3)(C1)C2)c1cccc(C#N)c1` (stereo not shown) [Compound 123, 3-((3-cyanophenyl)(methyl)carbamoyl)bicyclo[1.1.1]pentan-1-yl (1-(4-(2,6-dioxopiperidin-3-yl)-3,5-difluorophenyl)azetidin-3-yl)carbamate]: the Dmax at CDK2 lay in the range of 10 to 50%. This compound returned a Ki at CRBN-DDB1 not above 100 nM.
For the compound `O=C1CCC(c2c(F)cc(N3CC(Nc4nnc(-c5ccccn5)o4)C3)cc2F)C(=O)N1` (stereo not shown) [Compound 124, 3-(2,6-difluoro-4-(3-((5-(pyridin-2-yl)-1,3,4-oxadiazol-2-yl)amino)azetidin-1-yl)phenyl)piperidine-2,6-dione], the maximal degradation (Dmax) at CDK2 lay in the range of 10 to 50%. Also, the Ki on CRBN-DDB1 was not above 100 nM.
The compound `CN(C(=O)C12CC(OC(=O)NC3CN(c4cc(F)c(C5CCC(=O)NC5=O)c(F)c4)C3)(C1)C2)c1ccc(OC(F)(F)F)cc1` (stereo not shown) [Compound 125, 3-(methyl(4-(trifluoromethoxy)phenyl)carbamoyl)bicyclo[1.1.1]pentan-1-yl (1-(4-(2,6-dioxopiperidin-3-yl)-3,5-difluorophenyl)azetidin-3-yl)carbamate] came in with a Dmax at CDK2 of 50 to 80%. Moreover, the Ki on CRBN-DDB1 was not above 100 nM.
In the case of `O=C1CCC(c2c(F)cc(N3CC(NC(=O)OC45CC(C(=O)N6CCC6)(C4)C5)C3)cc2F)C(=O)N1` (stereo not shown) [Compound 126, 3-(azetidine-1-carbonyl)bicyclo[1.1.1]pentan-1-yl (1-(4-(2,6-dioxopiperidin-3-yl)-3,5-difluorophenyl)azetidin-3-yl)carbamate], on CDK2, the Dmax is 10 to 50%. At CRBN-DDB1, this compound gave a Ki not above 100 nM.
For the compound `O=C1CCC(c2c(F)cc(N3CC(Nc4nnc(CCC5CC5)o4)C3)cc2F)C(=O)N1` (stereo not shown) [Compound 127, 3-(4-(3-((5-(2-cyclopropylethyl)-1,3,4-oxadiazol-2-yl)amino)azetidin-1-yl)-2,6-difluorophenyl)piperidine-2,6-dione], at CDK2, the Dmax lay in the range of 10 to 50%. In addition, the inhibition constant Ki at CRBN-DDB1 was not above 100 nM.
With `O=C1CCC(c2c(F)cc(N3CC(Nc4nnc(-c5cccnc5)o4)C3)cc2F)C(=O)N1` (stereo not shown) [Compound 128, 3-(2,6-difluoro-4-(3-((5-(pyridin-3-yl)-1,3,4-oxadiazol-2-yl)amino)azetidin-1-yl)phenyl)piperidine-2,6-dione], on CDK2, the maximal degradation (Dmax) is 50 to 80%. The compound further gave a Ki on CRBN-DDB1 not above 100 nM.
Compound `CN(C(=O)C12CC(OC(=O)NC3CN(c4cc(F)c(C5CCC(=O)NC5=O)c(F)c4)C3)(C1)C2)c1ccc(Cl)cc1` (stereo not shown) [Compound 129, 3-((4-chlorophenyl)(methyl)carbamoyl)bicyclo[1.1.1]pentan-1-yl (1-(4-(2,6-dioxopiperidin-3-yl)-3,5-difluorophenyl)azetidin-3-yl)carbamate] returned a Dmax at CDK2 of 50 to 80%. On CRBN-DDB1, the Ki was not above 100 nM.
As to `COc1cccc(N(C)C(=O)C23CC(OC(=O)NC4CN(c5cc(F)c(C6CCC(=O)NC6=O)c(F)c5)C4)(C2)C3)c1` (stereo not shown) [Compound 130, 3-((3-methoxyphenyl)(methyl)carbamoyl)bicyclo[1.1.1]pentan-1-yl (1-(4-(2,6-dioxopiperidin-3-yl)-3,5-difluorophenyl)azetidin-3-yl)carbamate], the Dmax on CDK2 was 50 to 80%. In addition, at CRBN-DDB1, the Ki is not above 100 nM.
At CDK2, `CN(C(=O)C12CC(OC(=O)NC3CN(c4cc(F)c(C5CCC(=O)NC5=O)c(F)c4)C3)(C1)C2)c1cccc(Cl)c1` (stereo not shown) [Compound 131, 3-((3-chlorophenyl)(methyl)carbamoyl)bicyclo[1.1.1]pentan-1-yl (1-(4-(2,6-dioxopiperidin-3-yl)-3,5-difluorophenyl)azetidin-3-yl)carbamate] displayed a Dmax of 50 to 80%. This compound had a Ki on CRBN-DDB1 not above 100 nM.
`CN(C(=O)C12CC(OC(=O)NC3CN(c4cc(F)c(C5CCC(=O)NC5=O)c(F)c4)C3)(C1)C2)c1ccc(F)cc1` (stereo not shown) [Compound 132, 3-((4-fluorophenyl)(methyl)carbamoyl)bicyclo[1.1.1]pentan-1-yl (1-(4-(2,6-dioxopiperidin-3-yl)-3,5-difluorophenyl)azetidin-3-yl)carbamate] gave a Dmax on CDK2 of 50 to 80%. The inhibition constant Ki at CRBN-DDB1 was not above 100 nM.
At CDK2, `Cc1ccc(N(C)C(=O)C23CC(OC(=O)NC4CN(c5cc(F)c(C6CCC(=O)NC6=O)c(F)c5)C4)(C2)C3)cc1` (stereo not shown) [Compound 133, 3-(methyl (p-tolyl)carbamoyl)bicyclo[1.1.1]pentan-1-yl (1-(4-(2,6-dioxopiperidin-3-yl)-3,5-difluorophenyl)azetidin-3-yl)carbamate] had a Dmax of 50 to 80%. Moreover, the Ki at CRBN-DDB1 was not above 100 nM.
The compound `Cc1cccc(N(C)C(=O)C23CC(OC(=O)NC4CN(c5cc(F)c(C6CCC(=O)NC6=O)c(F)c5)C4)(C2)C3)c1` (stereo not shown) [Compound 134, 3-(methyl(m-tolyl)carbamoyl)bicyclo[1.1.1]pentan-1-yl (1-(4-(2,6-dioxopiperidin-3-yl)-3,5-difluorophenyl)azetidin-3-yl)carbamate] showed a Dmax at CDK2 of 50 to 80%. This compound displayed a Ki at CRBN-DDB1 not above 100 nM.
`Cc1ccccc1N(C)C(=O)C12CC(OC(=O)NC3CN(c4cc(F)c(C5CCC(=O)NC5=O)c(F)c4)C3)(C1)C2` (stereo not shown) [Compound 135, 3-(methyl(o-tolyl)carbamoyl)bicyclo[1.1.1]pentan-1-yl (1-(4-(2,6-dioxopiperidin-3-yl)-3,5-difluorophenyl)azetidin-3-yl)carbamate]: the Dmax at CDK2 was in the range of 50 to 80%. Besides, the Ki at CRBN-DDB1 is 100 to 1000 nM.
For `COc1c(N2CC(C)(Nc3nnc(-c4ccc(OC(F)(F)F)cc4)o3)C2)ccc(C2CCC(=O)NC2=O)c1F` (stereo not shown) [Compound 136, 3-(2-fluoro-3-methoxy-4-(3-methyl-3-((5-(4-(trifluoromethoxy)phenyl)-1,3,4-oxadiazol-2-yl)amino)azetidin-1-yl)phenyl)piperidine-2,6-dione], in that order: 50 to 80% and not above 100 nM.
